The source of these data is patent US8969352B2, “Substituted 2-azabicycles and their use as orexin receptor modulators” (Janssen Pharmaceutica NV, priority 2013, dated 2015).

Read-outs that look alike come from different tables or passages of the source.

The target in one assay is rat orexin 1 receptor (Rattus norvegicus, UniProt P56718). As to the kind of experiment: Rat orexin 1 receptor radioligand binding. Particulars: read-out: rOX1 Ki. The procedure:
(§1) Rat and Human Orexin 1 Receptor Radioligand Binding Studies
(§2) After centrifugation (2K×G, 5 min at 4° C.), the supernatant was aspirated and the pellets frozen and stored at −80° C. […] Each cell pellet from a 15 cm plate was resuspended in 10 mL, stored on ice, and homogenized for 45 sec prior to addition to the reactions. […] The final concentration of DMSO in the reactions is equal to or less than 0.1%. Total and nonspecific binding was determined in the absence and presence of 10 μM almorexant. The total volume of each reaction is 200 μL (20 μL of diluted compounds, 80 μL of [^3H]-(1-(5-(2-fluoro-phenyl)-2-methyl-thiazol-4-yl)-1-((S)-2-(5-phenyl-(1,3,4)oxadiazol-2-ylmethyl)-pyrrolidin-1-yl)-methanone) diluted in PBS and 100 μL of the cell suspension). […] The plates were washed 3 times by aspirating 30 ml PBS through the plates. Plates were dried in 55° C. oven for 60 min, scintillation fluid was added, and the radioactivity was counted on a Topcount (Packard).

A further assay deals with human orexin 1 receptor (Homo sapiens, UniProt O43613). The experiment in a line: Human orexin 1 receptor radioligand binding. Conditions: read-out: hOX1 Ki. The procedure: as §1, §2
For another assay, the target named is human orexin 2 receptor (Homo sapiens (Human), UniProt O43614). The experiment in a line: Human orexin 2 receptor radioligand binding. Particulars: read-out: hOX2 Ki. The procedure:
Human Orexin 2 Receptor Radioligand Binding Studies
as §2, with “sec just” for “sec”, “reactions. Competition binding experiments in 96 well polypropylene plates were performed using [^3H]-EMPA (Moraveck Corporation, specific activity=29.6 Ci/mmol), diluted to a 5 nM concentration in PBS (2 nM final concentration).” for “reactions.”, “[^3H]-EMPA” for “[^3H]-(1-(5-(2-fluoro-phenyl)-2-methyl-thiazol-4-yl)-1-((S)-2-(5-phenyl-(1,3,4)oxadiazol-2-ylmethyl)-pyrrolidin-1-yl)-methanone)”

Where [1] appears, read: HEK293 cells stably expressing rat orexin 1 receptor, competitive radioligand binding, apparent Ki.
[2] abbreviates: CHO cells stably expressing human orexin 1 receptor, competitive radioligand binding, apparent Ki.
Where [3] appears, read: HEK293 stably expressing human orexin 2 receptor, [3H]-EMPA competitive binding, apparent Ki.

Sequence of human orexin 2 receptor (O43614 whole entry): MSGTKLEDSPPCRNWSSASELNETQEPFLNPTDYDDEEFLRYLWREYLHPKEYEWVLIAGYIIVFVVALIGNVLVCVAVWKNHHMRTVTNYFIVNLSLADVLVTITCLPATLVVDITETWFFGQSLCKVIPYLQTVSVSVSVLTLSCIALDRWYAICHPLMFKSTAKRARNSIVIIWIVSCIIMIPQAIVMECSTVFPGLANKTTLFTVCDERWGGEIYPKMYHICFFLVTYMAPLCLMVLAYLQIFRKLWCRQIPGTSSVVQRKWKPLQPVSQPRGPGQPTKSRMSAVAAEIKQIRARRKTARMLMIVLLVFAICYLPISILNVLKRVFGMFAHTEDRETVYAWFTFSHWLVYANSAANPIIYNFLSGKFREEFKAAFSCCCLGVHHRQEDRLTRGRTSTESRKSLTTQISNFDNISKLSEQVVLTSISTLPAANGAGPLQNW

Turning to `CCOc1ccc2cccnc2c1C(=O)N1CC2CC(Oc3ccc(C(F)(F)F)cn3)C1C2` (racemic) [Example 10, (R/S)-(7-ethoxyquinolin-8-yl)(6-((5-(trifluoromethyl)pyridin-2-yl)oxy)-2-azabicyclo[2.2.1]heptan-2-yl)methanone], the results for the Ki at rat orexin 1 receptor (setting [1]), at human orexin 1 receptor (setting [2]) and at human orexin 2 receptor (setting [3]) were 0.018 µM, 0.027 µM and 0.526 µM, respectively.

With `COc1ccc(C(=O)N2CC3CC(Oc4ccc(C(F)(F)F)cn4)C2C3)c(-c2ncccn2)c1` (racemic) [Example 12, (R/S)-(4-methoxy-2-(pyrimidin-2-yl)phenyl)(6-((5-(trifluoromethyl)pyridin-2-yl)oxy)-2-azabicyclo[2.2.1]heptan-2-yl)methanone], the Ki is 0.044 µM at rat orexin 1 receptor (setting [1]), 0.059 µM at human orexin 1 receptor (setting [2]) and more than 10 µM on human orexin 2 receptor (setting [3]).

In the case of `COc1ccc(C(=O)N2CC3CC(Oc4ccc(C(F)(F)F)cn4)C2C3)c(-n2nccn2)c1` (racemic) [Example 13], the figures for the Ki on rat orexin 1 receptor (setting [1]), on human orexin 1 receptor (setting [2]) and at human orexin 2 receptor (setting [3]) were 0.052 µM, 0.109 µM and more than 10 µM, respectively.

In the case of `O=C(c1cc(F)ccc1-c1ncccn1)N1CC2CC(Oc3ccc(C(F)(F)F)cn3)C1C2` (racemic) [Example 19, (R/S)-(5-fluoro-2-(pyrimidin-2-yl)phenyl)(6-((5-(trifluoromethyl)pyridin-2-yl)oxy)-2-azabicyclo[2.2.1]heptan-2-yl)methanone], the Ki at rat orexin 1 receptor (setting [1]) came out at 0.018 µM; at human orexin 1 receptor (setting [2]) it was 0.009 µM; at human orexin 2 receptor (setting [3]), 0.945 µM.

For `Cc1ccc(C(=O)N2C[C@H]3C[C@@H](Oc4ccc(C(F)(F)F)cn4)[C@@H]2C3)c(-n2nccn2)n1` [Example 29, (6-methyl-2-(2H-1,2,3-triazol-2-yl)pyridin-3-yl)((1S,4R,6R)-6-((5-(trifluoromethyl)pyridin-2-yl)oxy)-2-azabicyclo[2.2.1]heptan-2-yl)methanone], the figures for the Ki at rat orexin 1 receptor (setting [1]), at human orexin 1 receptor (setting [2]) and at human orexin 2 receptor (setting [3]) were 0.055 µM, 0.047 µM and more than 10 µM, respectively.

For `O=C(c1ncccc1-n1nccn1)N1C[C@H]2C[C@@H](Oc3ccc(C(F)(F)F)cn3)[C@@H]1C2` [Example 30, (3-(2H-1,2,3-triazol-2-yl)pyridin-2-yl)((1S,4R,6R)-6-((5-(trifluoromethyl)pyridin-2-yl)oxy)-2-azabicyclo[2.2.1]heptan-2-yl)methanone], the Ki was 0.019 µM at rat orexin 1 receptor (setting [1]), 0.022 µM at human orexin 1 receptor (setting [2]) and 1.7 µM on human orexin 2 receptor (setting [3]).

As to `Cc1ccc(C(=O)N2C[C@H]3C[C@@H](Oc4ccc(C(F)(F)F)cn4)[C@@H]2C3)c(-n2ccnn2)n1` [Example 34, (6-methyl-2-(1H-1,2,3-triazol-1-yl)pyridin-3-yl)((1S,4R,6R)-6-((5-(trifluoromethyl)pyridin-2-yl)oxy)-2-azabicyclo[2.2.1]heptan-2-yl)methanone], the Ki on rat orexin 1 receptor (setting [1]) is 0.117 µM; at human orexin 1 receptor (setting [2]), 0.462 µM; at human orexin 2 receptor (setting [3]) it was 1.1 µM.

Take `CCOc1ccc(C)nc1C(=O)N1C[C@H]2C[C@@H](Oc3ccc(C(F)(F)F)cn3)[C@@H]1C2` [Example 37, (3-ethoxy-6-methylpyridin-2-yl)((1S,4R,6R)-6-((5-(trifluoromethyl)pyridin-2-yl)oxy)-2-azabicyclo[2.2.1]heptan-2-yl)methanone]: the figures for the Ki at rat orexin 1 receptor (setting [1]), at human orexin 1 receptor (setting [2]) and at human orexin 2 receptor (setting [3]) were 0.17 µM, 0.265 µM and 1.8 µM, respectively.

As to `O=C(c1c(F)cccc1-c1ncccn1)N1C[C@H]2C[C@@H](Oc3ccc(C(F)(F)F)cn3)[C@@H]1C2` [Example 38, (2-fluoro-6-(pyrimidin-2-yl)phenyl)((1S,4R,6R)-6-((5-(trifluoromethyl)pyridin-2-yl)oxy)-2-azabicyclo[2.2.1]heptan-2-yl)methanone], the figures for the Ki at rat orexin 1 receptor (setting [1]), at human orexin 1 receptor (setting [2]) and at human orexin 2 receptor (setting [3]) were 0.008 µM, 0.008 µM and 0.69 µM, respectively.

As to `COc1cccc(-c2ccn[nH]2)c1C(=O)N1C[C@H]2C[C@@H](Oc3ccc(C(F)(F)F)cn3)[C@@H]1C2` [Example 39, (2-methoxy-6-(1H-pyrazol-5-yl)phenyl)((1S,4R,6R)-6-((5-(trifluoromethyl)pyridin-2-yl)oxy)-2-azabicyclo[2.2.1]heptan-2-yl)methanone], the results for the Ki at rat orexin 1 receptor (setting [1]), on human orexin 1 receptor (setting [2]) and at human orexin 2 receptor (setting [3]) were 0.132 µM, 0.017 µM and 0.108 µM, respectively.

With `COc1cccc(-c2ncccn2)c1C(=O)N1C[C@H]2C[C@@H](Oc3ccc(C(F)(F)F)cn3)[C@@H]1C2` [Example 40, (2-methoxy-6-(pyrimidin-2-yl)phenyl)((1S,4R,6R)-6-((5-(trifluoromethyl)pyridin-2-yl)oxy)-2-azabicyclo[2.2.1]heptan-2-yl)methanone], the Ki at rat orexin 1 receptor (setting [1]) is 0.016 µM; at human orexin 1 receptor (setting [2]), 0.009 µM; at human orexin 2 receptor (setting [3]) it was 0.34 µM.

Take `O=C(c1cccc2cc[nH]c12)N1C[C@H]2C[C@@H](Oc3ccc(C(F)(F)F)cn3)[C@@H]1C2` [Example 42, (1H-indol-7-yl)((1S,4R,6R)-6-((5-(trifluoromethyl)pyridin-2-yl)oxy)-2-azabicyclo[2.2.1]heptan-2-yl)methanone]: the Ki at rat orexin 1 receptor (setting [1]) was determined as 0.184 µM; at human orexin 1 receptor (setting [2]) it was 0.175 µM; on human orexin 2 receptor (setting [3]), 5.8 µM.

Turning to `O=C(c1ccc(F)cc1-n1nccn1)N1C[C@H]2C[C@@H](Oc3ccc(C(F)(F)F)cn3)[C@@H]1C2` [Example 44, (4-fluoro-2-(2H-1,2,3-triazol-2-yl)phenyl)((1S,4R,6R)-6-((5-(trifluoromethyl)pyridin-2-yl)oxy)-2-azabicyclo[2.2.1]heptan-2-yl)methanone], the Ki came to 0.022 µM at rat orexin 1 receptor (setting [1]), 0.042 µM on human orexin 1 receptor (setting [2]) and 2.2 µM at human orexin 2 receptor (setting [3]).

Take `O=C(c1cccc(F)c1Br)N1C[C@H]2C[C@@H](Oc3ccc(C(F)(F)F)cn3)[C@@H]1C2` [Example 45, (2-bromo-3-fluorophenyl)((1S,4R,6R)-6-((5-(trifluoromethyl)pyridin-2-yl)oxy)-2-azabicyclo[2.2.1]heptan-2-yl)methanone]: the Ki came out at 0.06 µM on rat orexin 1 receptor (setting [1]), 0.055 µM at human orexin 1 receptor (setting [2]) and 1.5 µM on human orexin 2 receptor (setting [3]).

For `O=C(c1cccc(F)c1-c1ncccn1)N1C[C@H]2C[C@@H](Oc3ccc(Br)cn3)[C@@H]1C2` [Example 48, ((1S,4R,6R)-6-((5-bromopyridin-2-yl)oxy)-2-azabicyclo[2.2.1]heptan-2-yl)(3-fluoro-2-(pyrimidin-2-yl)phenyl)methanone], the Ki at rat orexin 1 receptor (setting [1]) turned out to be 0.003 µM; at human orexin 1 receptor (setting [2]) it was 0.006 µM; on human orexin 2 receptor (setting [3]) it was 0.972 µM.

For the compound `O=C(c1ccccc1-n1nccn1)N1C[C@H]2C[C@@H](Oc3ccc(Br)cn3)[C@@H]1C2` [Example 49, (2-(2H-1,2,3-triazol-2-yl)phenyl)((1S,4R,6R)-6-((5-bromopyridin-2-yl)oxy)-2-azabicyclo[2.2.1]heptan-2-yl)methanone], the values for the Ki at rat orexin 1 receptor (setting [1]), at human orexin 1 receptor (setting [2]) and on human orexin 2 receptor (setting [3]) were 0.006 µM, 0.006 µM and 0.507 µM, respectively.

As to `Cc1ccc(-n2nccn2)c(C(=O)N2C[C@H]3C[C@@H](Oc4ccc(Br)cn4)[C@@H]2C3)n1` [Example 50, ((1S,4R,6R)-6-((5-bromopyridin-2-yl)oxy)-2-azabicyclo[2.2.1]heptan-2-yl)(6-methyl-3-(2H-1,2,3-triazol-2-yl)pyridin-2-yl)methanone], the Ki on rat orexin 1 receptor (setting [1]) turned out to be 0.007 µM; at human orexin 1 receptor (setting [2]), 0.009 µM; on human orexin 2 receptor (setting [3]) it was 0.67 µM.

For the compound `Cc1ccc(-n2nccn2)c(C(=O)N2C[C@H]3C[C@@H](Nc4ccc(C(F)(F)F)cn4)[C@@H]2C3)n1` [Example 54, (6-methyl-3-(2H-1,2,3-triazol-2-yl)pyridin-2-yl)((1S,4S,6R)-6-((5-(trifluoromethyl)pyridin-2-yl)amino)-2-azabicyclo[2.2.1]heptan-2-yl)methanone], the Ki at rat orexin 1 receptor came to 0.005 µM; at human orexin 1 receptor it was 0.006 µM; on human orexin 2 receptor it was 0.132 µM.

As to `Cc1cccc(C(=O)N2C[C@H]3C[C@@H](Nc4ccc(C(F)(F)F)cn4)[C@@H]2C3)c1-n1nccn1` [Example 55, (3-methyl-2-(2H-1,2,3-triazol-2-yl)phenyl)((1S,4S,6R)-6-((5-(trifluoromethyl)pyridin-2-yl)amino)-2-azabicyclo[2.2.1]heptan-2-yl)methanone], the Ki worked out at 0.003 µM at rat orexin 1 receptor (setting [1]), 0.003 µM on human orexin 1 receptor (setting [2]) and 0.046 µM on human orexin 2 receptor (setting [3]).

In the case of `CCOc1ccc2cccnc2c1C(=O)N1C[C@H]2C[C@@H](Nc3ccc(C(F)(F)F)cn3)[C@@H]1C2` [Example 56, (7-ethoxyquinolin-8-yl)((1S,4S,6R)-6-((5-(trifluoromethyl)pyridin-2-yl)amino)-2-azabicyclo[2.2.1]heptan-2-yl)methanone], the Ki at rat orexin 1 receptor (setting [1]) was determined as 0.008 µM; at human orexin 1 receptor (setting [2]) it was 0.01 µM; at human orexin 2 receptor (setting [3]), 0.192 µM.
